From patent US20140371165A1, “Identification of NSC23925 Isomers to Reverse Multidrug Resistance in Human Cancers” (priority 2012, published 2014)
“Also recorded” adds a separate entry of the source. Counter-ions that a name gives are not always drawn.

Legend:
[1] = test system: MDR cancer cell lines; assay: MTT reversal of drug resistance in MDR cell lines (cell line not specified); format: cell-based
Text: (§1) A panel of parental cancer cell line and their daughter resistant cell lines, displaying MDR phenotype were used in this study. Human ovarian cancer cell line SKOV-3, breast cancer cell line MCF-7 and colon cancer cell line SW480, the osteosarcoma cell line U-2OS, KHOS, uterine sarcoma cell line MESSA and its doxorubicin selected drug resistant cell line MESSA/Dx5, non-small cell lung cancer cell line H-69 and its doxorubicin selected drug resistant cell line H-69AR (overexpress MRP1) were obtained from the ATCC (Rockville, Md.). Dr. Efstathios Gonos (Institute of Biological Research & Biotechnology, Athens, Greece) provided the doxorubicin resistant U-2OS R2 (referred in the text below as U-2OSDR), KHOS R2 cell lines. Dr. Erasmus Schneider (Wadsworth Center, Albany) provided the mitoxantrane resistant breast cancer MCF-7/MX (overexpress BCRP) cell line. All the cell lines were cultured in RPMI 1640 (Invitrogen, Carlsbad, Calif.) supplemented with 10% fetal bovine serum, 100-units/ml penicillin and 100 μg/ml streptomycin (Invitrogen). Cells were incubated at 37° C. in 5% CO2-95% air atmosphere and passaged when near confluent monolayers were achieved using 2% trypsin-EDTA solution. Drug-resistant cell lines were periodically cultured in the respective drug to confirm their drug resistance characteristics. The fresh chemotherapy drugs were obtained from the pharmacy at the Massachusetts General Hospital and stored at −20° C.
(§2) To evaluate for reversal of Pgp-mediated MDR, SKOV-3TR, MCF-7adr and SW480TR cell lines were seeded into 96-well tissue culture plate at 2,000 cells per well with varying concentrations of chemotherapy drugs and NSC23925b for 6 days. Cell proliferation IC50 (concentration required for 50% inhibition) and MDR reversal IC50 were determined from dose-response curves carried out in triplicate in 96-well plate. Fold of reverse resistance for individual drugs were defined as the IC50 of MDR cells without NSC23925b treatment divided by the IC50 of MDR cells treated with NSC23925b. To test for the effect of reversal of MRP1 or BCRP-mediated MDR, H-69AR or MCF-7/MX cells were placed into 96-wells and treated with chemotherapy drugs similar as described above. Drug cytotoxicity was assessed in vitro using the MTT assay as previously described. Drugs at the concentrations utilized in the MTT assay were performed in the absence of cells to verify no change in absorbance. Response curves were fitted with use of GraphPad PRISM 4 software (GraphPad Software).

[2] = test system: SKOV-3TR; assay: MTT cytotoxicity assay and reversal of MDR in SKOV-3TR; format: cell-based, human
Text: as §1, with “Drug-resistant cell lines were periodically cultured in the respective drug to confirm their drug resistance characteristics.” left out
as §2, with “To test for the effect of reversal of MRP1 or BCRP-mediated MDR, H-69AR or MCF-7/MX cells were placed into 96-wells and treated with chemotherapy drugs similar as described above.” left out, “Drugs at the concentrations utilized in the MTT assay were performed in the absence of cells to verify no change in absorbance.” left out
Structure and activity relationship (SAR) of the four NSC23925 isomers for reversing MDR were evaluated in human ovarian cancer MDR cell line SKOV-3TR by MTT assay (FIGS. 1A-D). Cells were treated with the paclitaxel and NSC23925 diastereomers NSC23925a (FIG. 1A), NSC23925b (FIG. 1B), NSC23925c (FIG. 1C) and NSC23925d (FIG. 1D) in RPMI1640 complete media at the indicated concentrations. The relative sensitivity of each line to paclitaxel was determined by MTT analysis 6 days post-treatment.

[3] = test system: H-69AR; assay: MTT reversal of MRP1-mediated MDR in H-69AR; format: cell-based, human; details: non-Pgp expressing drug resistant cell line
[4] = test system: SW480TR; assay: MTT cytotoxicity assay and reversal of MDR in SW480TR; format: cell-based, human
Text: as §1, with “Drug-resistant cell lines were periodically cultured in the respective drug to confirm their drug resistance characteristics.” left out
as §2, with “To test for the effect of reversal of MRP1 or BCRP-mediated MDR, H-69AR or MCF-7/MX cells were placed into 96-wells and treated with chemotherapy drugs similar as described above.” left out, “Drugs at the concentrations utilized in the MTT assay were performed in the absence of cells to verify no change in absorbance.” left out
MCF-7adr and SW480TR cells were treated with paclitaxel (FIGS. 2A-B), doxorubicin (FIGS. 2C-D) or mitoxantrane (FIGS. 2E-F) and NSC23925b in RPMI1640 complete media at the indicated concentrations. The relative sensitivity of each line to the indicated drugs was determined by MTT analysis 6 days post-treatment.

[5] = Reverse Drug Resistance by NSC23925b, value = chemotherapy drug, hydrochloride

SMILES: COc1ccc(-c2cc([C@H](O)[C@H]3CCCCN3)c3ccccc3n2)cc1 [NSC23925b, (2-(4-methoxyphenyl)quinolin-4-yl)(piperidin-2-yl)methanol hydrochloride]
- effects on the drug sensitivities of cisplatin, carboplatin, toptecan and methotrexate [1]: no significant effects
- Decreased Drug Resistance (drug to which NSC23925b decreased resistance) [1, 5]: Gemcitabine; also recorded: ET-743; also recorded: Mitoxantrane; also recorded: Paclitaxel; also recorded: Docetaxel; also recorded: Doxorubicin; also recorded: Vincristine; also recorded: Daunorubicin
- No Effect (drug whose resistance NSC23925b did not change) [1, 5]: Cisplatin; also recorded: Carboplatin; also recorded: Topotecan; also recorded: Methotrexate
- effect on doxorubicin-induced cell death (MTT cytotoxicity assay) ([1]; combined with doxorubicin): synergistic effect
- reverse MDR to paclitaxel, doxorubicin, and mitoxantrane ([1]; ovarian, breast, uterine, colon, and sarcoma MDR cancer cell lines): able to reverse MDR
- fold-reversal of drug resistance ([2]; Doxorubicin, NSC23925b 0.1 μM): 2 fold
- fold-reversal of drug resistance ([2]; Doxorubicin, NSC23925b 0.5 μM): 9 fold
- fold-reversal of drug resistance ([2]; Doxorubicin, NSC23925b 1 μM): 32 fold
- fold-reversal of drug resistance ([2]; Mitoxantrane, NSC23925b 0.1 μM): 1.2 fold
- fold-reversal of drug resistance ([2]; Mitoxantrane, NSC23925b 0.5 μM): 2.6 fold
- fold-reversal of drug resistance ([2]; Mitoxantrane, NSC23925b 1 μM): 8 fold
- fold-reversal of drug resistance ([2]; Paclitaxel, NSC23925b 0.1 μM): 2 fold
- fold-reversal of drug resistance ([2]; Paclitaxel, NSC23925b 0.5 μM): 7 fold
- fold-reversal of drug resistance ([2]; Paclitaxel, NSC23925b 1 μM): 28 fold
- potency of isomer on reversing drug resistance ([2]; with paclitaxel, MTT 6 days post-treatment): most potent isomer
- reversal of MRP1 mediated drug resistance [3]: unable to reverse drug resistance
- fold-reversal of drug resistance ([4]; Doxorubicin, NSC23925b 0.1 μM): 1.7 fold
- fold-reversal of drug resistance ([4]; Doxorubicin, NSC23925b 0.5 μM): 3 fold
- fold-reversal of drug resistance ([4]; Doxorubicin, NSC23925b 1 μM): 8 fold
- reverse paclitaxel, doxorubicin, and mitoxantrane resistance ([4]; MTT 6 days post-treatment): able to reverse
- fold-reversal of drug resistance ([4]; Mitoxantrane, NSC23925b 0.1 μM): 1.2 fold
- fold-reversal of drug resistance ([4]; Mitoxantrane, NSC23925b 0.5 μM): 3 fold
- fold-reversal of drug resistance ([4]; Mitoxantrane, NSC23925b 1 μM): 14 fold
- fold-reversal of drug resistance ([4]; Paclitaxel, NSC23925b 0.1 μM): 1.3 fold
- fold-reversal of drug resistance ([4]; Paclitaxel, NSC23925b 0.5 μM): 8 fold
- fold-reversal of drug resistance ([4]; Paclitaxel, NSC23925b 1 μM): 13 fold
